Experimental data published in patent publication US20220409562A1, “Treatment or Prevention of Ischaemic Stroke Reperfusion Injury” (Cambridge Enterprise Limited, priority 2019, published 2022).
“Also recorded” adds a separate entry of the source.

How the values were obtained:
[1] = system: transient middle cerebral artery occlusion (MCAO) in C57Bl6J mice; assay: Transient middle cerebral artery occlusion (MCAO) model, infarct volume and cerebral blood flow; type: in vivo; details: given i.v. for 20 minutes starting just prior to reperfusion; 45 min ischemia, 2 h reperfusion; vs saline/vehicle control
Source text: Male C57Bl6J mice, 6-8 weeks old, were anesthetized with 3% isoflurane and anaesthesia was maintained on 1.5-2% isoflurane. A Doppler flowmetry probe (Perimed, Sweden) was attached to the skull to continuously monitor the cerebral blood flow. Left common carotid artery (CCA) and left external carotid artery were exposed and permanently ligated. Left […] was clamped temporarily. Next, an incision was made on CCA and a filament with a silicon tip (0.22 mm in diameter, 2-3 mm in length, Doccol, USA) was inserted and guided forward into internal carotid artery until it reached middle cerebral artery (MCA). The occlusion of MCA was confirmed by seeing at least 70% drop in cerebral blood flow. […]
At the end of reperfusion, mice were sacrificed by cervical dislocation; brain was collected and sliced at 2 mm thicknesses and stained with 2% triphenyltetrazolium chloride in saline at 37 C for 10-15 min. […] The healthy tissue area (red-stained) in both hemispheres was measured using ImageJ. The infarct volume % was calculated by first calculating the volume of healthy tissue in each hemisphere (Σarea of each slice×thickness of slice), then by the formula: ((volume of healthy tissue in uninjured hemisphere −volume of healthy tissue in injured hemisphere) ÷volume of healthy tissue in uninjured hemisphere)×100. […]

ischemia = details: administered prior to and throughout ischemia; cited from earlier work
[2] = Malonate uptake in vivo (tissue levels after tail vein bolus, LC-MS/MS); parameters: species or system C57/BL6 mice; details: 160 mg/kg tail vein bolus, 5 min after injection, normoxic mouse
Experimental: To see if this uptake also occurred in vivo, we injected disodium malonate into a normoxic mouse by a bolus in the tail vein and measured the malonate levels in tissues 5 min later. C57/BL6 mice were tail vein injected with DSM (160 mg/kg) before cervical dislocation 5 min after the injection, tissues harvested and clamp frozen in liquid nitrogen. For tissue analysis, tissues were weighed and extracted in 25 μl/mg extraction buffer containing internal standard and homogenised in a Precellys 24 homogeniser. Homogenates were centrifuged to remove insoluble debris. Extracts were analysed by LC-MS/MS and the levels of malonate assessed by interpolation of a malonate standard curve.

[3] = system: C2Cl2 mouse myoblast cells; assay: Malonate uptake in vitro (LC-MS of cell extracts); type: in vitro ADME; details: for malonate concentration within the cell: allowing for a cell volume of 260 mg protein/ml
Experimental: We first explored whether malonate could be taken up by cells in culture. C2Cl2 mouse myoblast cells were plated at 300,000 cells/well and adhered overnight. The next day, cells were treated with either DSM (a—0.25 mM; b—0.25, 1 or 5 mM) or untreated for 0 to 240 min before cooling plates on ice and rapidly washing 4 times with ice-cold PBS and placed on dry ice. Cells were extracted for mass spectrometry with 500 μl extraction buffer (50% methanol, 30% acetonitrile and 20% water) with 1 nmol ^13C-malonate internal standard centrifuged to remove insoluble debris.

SMILES	necrotic brain infarct volume [1]	protective effect (ischemia)	tissue levels of malonate, brain [2]	tissue levels of malonate, heart [2]	tissue levels of malonate, kidney [2]	tissue levels of malonate, liver [2]	intracellular malonate levels ([3]; 5 mM DSM, after 5 min (FIG. 4b))	malonate uptake into cells ([3]; 0.25, 1 or 5 mM, 0 to 240 min (FIG. 4b))	malonate concentration within the cell ([3]; after 5 min incubated with 250 μM)	malonate concentration within the cell ([3]; after 5 min incubated with 5 mM)	intracellular malonate levels ([3]; incubated with 250 μM disodium malonate (FIG. 4a))
COC(=O)CC(=O)OC [DMM, dimethyl malonate]	no significant difference; also recorded: not effective	protective	–	–	–	–	–	–	–	–	–
O=C([O-])CC(=O)[O-].[Na+].[Na+] [DSM, disodium malonate]	decreased	–	uptake	significant amounts	particularly high	significant amounts	~2 nmol/mg protein	both dose and time-dependent	about 50	~500	0.2-0.4 nmol/mg protein
